Several values for one entry are separate records, joined by “and”; a condition that tells them apart may be missing. Identical values can stand only once. Marks after values point to notes of the source that are not given here. Ends that are not written are not given here.
Columns and labels:
Assay in all cases: Spot test of partially purified bacteriocins on strains grown on agar
Streptococcus = system: Streptococcus
Brochothrix = system: Brochothrix
Staphylococcus = system: Staphylococcus
Pediococcus = system: Pediococcus
Lactococcus = system: Lactococcus
Lactobacillus = system: Lactobacillus
Bacillus spores = format: cell-based
[1] = system: Bacillus vegetative cells; format: cell-based
Leuconostoc = system: Leuconostoc
G negative strains = format: cell-based
Carnobacteria = system: Carnobacteria
Enterococcus = system: Enterococcus
[2] = system: Clostridia vegetative cells; format: cell-based, Clostridium
Clostridia spores = format: cell-based, Clostridium
Listeria = system: Listeria

Substance | Number of strains inhibited/Number of strains tested (Streptococcus; 1AU (10 μl/spot of 100 AU/ml)) | Number of strains inhibited/Number of strains tested (Streptococcus; 8AU (10 μl/spot of 800 AU/ml)) | Number of strains inhibited/Number of strains tested (Brochothrix; 1AU (10 μl/spot of 100 AU/ml)) | Number of strains inhibited/Number of strains tested (Brochothrix; 8AU (10 μl/spot of 800 AU/ml)) | Number of strains inhibited/Number of strains tested (Staphylococcus; 1AU (10 μl/spot of 100 AU/ml)) | Number of strains inhibited/Number of strains tested (Staphylococcus; 8AU (10 μl/spot of 800 AU/ml)) | Number of strains inhibited/Number of strains tested (Pediococcus; 1AU (10 μl/spot of 100 AU/ml)) | Number of strains inhibited/Number of strains tested (Pediococcus; 8AU (10 μl/spot of 800 AU/ml)) | Number of strains inhibited/Number of strains tested (Lactococcus; 1AU (10 μl/spot of 100 AU/ml)) | Number of strains inhibited/Number of strains tested (Lactococcus; 8AU (10 μl/spot of 800 AU/ml)) | Number of strains inhibited/Number of strains tested (Lactobacillus; 1AU (10 μl/spot of 100 AU/ml)) | Number of strains inhibited/Number of strains tested (Lactobacillus; 8AU (10 μl/spot of 800 AU/ml)) | Number of strains inhibited/Number of strains tested (Bacillus spores; 1AU (10 μl/spot of 100 AU/ml)) | Number of strains inhibited/Number of strains tested (Bacillus spores; 8AU (10 μl/spot of 800 AU/ml)) | Number of strains inhibited/Number of strains tested ([1]; 1AU (10 μl/spot of 100 AU/ml)) | Number of strains inhibited/Number of strains tested ([1]; 8AU (10 μl/spot of 800 AU/ml)) | Number of strains inhibited/Number of strains tested (Leuconostoc; 1AU (10 μl/spot of 100 AU/ml)) | Number of strains inhibited/Number of strains tested (Leuconostoc; 8AU (10 μl/spot of 800 AU/ml)) | Number of strains inhibited/Number of strains tested (G negative strains; 1AU (10 μl/spot of 100 AU/ml)) | Number of strains inhibited/Number of strains tested (G negative strains; 8AU (10 μl/spot of 800 AU/ml)) | other results
Nisin | 1/3 | 2/3 | 14/14 | 14/14 | 3/7 | 7/7 | 3/3 | 3/3 | 4/8 | 6/8^t and 6/8 | 16/17 | 17/17 | 5/5 | 5/5 | 5/5 | 5/5 | 9/9 | 9/9 | 0/29 | 0/29 | Number of strains inhibited/Number of strains tested (Carnobacteria; 1AU (10 μl/spot of 100 AU/ml)): 19/19; Number of strains inhibited/Number of strains tested (Carnobacteria; 8AU (10 μl/spot of 800 AU/ml)): 19/19; Number of strains inhibited/Number of strains tested (Enterococcus; 1AU (10 μl/spot of 100 AU/ml)): 12/14; Number of strains inhibited/Number of strains tested (Enterococcus; 8AU (10 μl/spot of 800 AU/ml)): 14/14; Number of strains inhibited/Number of strains tested ([2]; 1AU (10 μl/spot of 100 AU/ml)): 7/8; Number of strains inhibited/Number of strains tested ([2]; 8AU (10 μl/spot of 800 AU/ml)): 8/8; Number of strains inhibited/Number of strains tested (Clostridia spores; 1AU (10 μl/spot of 100 AU/ml)): 5/7; Number of strains inhibited/Number of strains tested (Clostridia spores; 8AU (10 μl/spot of 800 AU/ml)): 7/7; Number of strains inhibited/Number of strains tested (Listeria; 1AU (10 μl/spot of 100 AU/ml)): 42/42; Number of strains inhibited/Number of strains tested (Listeria; 8AU (10 μl/spot of 800 AU/ml)): 42/42
Pedi PA-1: pediocin PA-1, a bacteriocin from Pediococcus acidilactici PAC1.0 (KYYGNGVTCGKHSCSVDWGKATTCIINNGAMAWATGGHQGNHKC; ends and bridges not checked; cysteine pairing not given here; UniProt P29430 19-62, looked up) | 0/3 | 0/3 | 0/14 | 0/14 | 0/7 | 1/7 | 0/3 | 2/3 | 0/8 | 0/8 | 1/17 | 2/17 | 0/5 | 0/5 | 2/5 | 2/5 | 4/9 | 5/9 | 0/29 | 0/29 | Number of strains inhibited/Number of strains tested (Carnobacteria; 1AU (10 μl/spot of 100 AU/ml)): 7/19; Number of strains inhibited/Number of strains tested (Carnobacteria; 8AU (10 μl/spot of 800 AU/ml)): 7/19; Number of strains inhibited/Number of strains tested (Enterococcus; 1AU (10 μl/spot of 100 AU/ml)): 7/14; Number of strains inhibited/Number of strains tested (Enterococcus; 8AU (10 μl/spot of 800 AU/ml)): 11/14; Number of strains inhibited/Number of strains tested ([2]; 1AU (10 μl/spot of 100 AU/ml)): 0/8; Number of strains inhibited/Number of strains tested ([2]; 8AU (10 μl/spot of 800 AU/ml)): 0/8; Number of strains inhibited/Number of strains tested (Clostridia spores; 1AU (10 μl/spot of 100 AU/ml)): 0/7; Number of strains inhibited/Number of strains tested (Clostridia spores; 8AU (10 μl/spot of 800 AU/ml)): 0/7; Number of strains inhibited/Number of strains tested (Listeria; 1AU (10 μl/spot of 100 AU/ml)): 39/42; Number of strains inhibited/Number of strains tested (Listeria; 8AU (10 μl/spot of 800 AU/ml)): 40/42
cbn A | 0/3 | 0/3 | 0/14 | 0/14 | 0/7 | 1/7 | 0/3 | 0/3 | 0/8 | 0/8 | 0/17 | 1/17 | 0/5 | 0/5 | 2/5 | 2/5 | 1/9 | 1/9 | 0/29 | 0/29 | Number of strains inhibited/Number of strains tested (Carnobacteria; 1AU (10 μl/spot of 100 AU/ml)): 0/14; Number of strains inhibited/Number of strains tested (Carnobacteria; 8AU (10 μl/spot of 800 AU/ml)): 0/14; Number of strains inhibited/Number of strains tested (Enterococcus; 1AU (10 μl/spot of 100 AU/ml)): 2/14; Number of strains inhibited/Number of strains tested (Enterococcus; 8AU (10 μl/spot of 800 AU/ml)): 2/14; Number of strains inhibited/Number of strains tested ([2]; 1AU (10 μl/spot of 100 AU/ml)): 0/8; Number of strains inhibited/Number of strains tested ([2]; 8AU (10 μl/spot of 800 AU/ml)): 0/8; Number of strains inhibited/Number of strains tested (Clostridia spores; 1AU (10 μl/spot of 100 AU/ml)): 0/7; Number of strains inhibited/Number of strains tested (Clostridia spores; 8AU (10 μl/spot of 800 AU/ml)): 0/7; Number of strains inhibited/Number of strains tested (Listeria; 1AU (10 μl/spot of 100 AU/ml)): 4/42; Number of strains inhibited/Number of strains tested (Listeria; 8AU (10 μl/spot of 800 AU/ml)): 21/42

— patent US6403082B1, “Bacteriocins, transport and vector system and method of use thereof” (priority 1996, dated 2002)
